{"source": "patent US11065263B2", "about": "“Sterol composition in pumpkin seed oil and application thereof, and drug for treating benign prostatic hyperplasia” (Hunan Zhongkewentai Bio-tech co.Ltd, priority 2019, dated 2021)", "assay_type_in_all_cases": "in vivo, SD (Sprague Dawley) rats", "key": {"5α-reductase": {"test_system": "5α-reductase", "test": "RT-qPCR genetic expression of 5α-reductase in the prostate", "conditions": "finasteride group, 0.28 mg/kg, compared with the model group"}, "[1]": {"test": "rat weight after 4 week administration in benign prostatic hyperplasia rats", "conditions": "finasteride group, 0.28 mg/kg by gavage once a day"}, "[2]": {"test_system": "prostate tissue of benign prostatic hyperplasia rats", "test": "prostate tissue appearance and HE stain morphology in benign prostatic hyperplasia rats", "conditions": "finasteride group, 0.28 mg/kg", "from_the_text": "The drug is administrated by gavage once a day; after administrating for consecutive 6 days, administration is stopped for one day; and an administration cycle is 4 week. killing the SD rats, separating the prostate of the SD rats through the tweezers, and weighing the prostate; […]"}, "[3]": {"test_system": "benign prostatic hyperplasia rats treated with testosterone propionate", "test": "prostate weight and prostate index in benign prostatic hyperplasia rats treated with testosterone propionate", "conditions": "finasteride group", "description": ": modeling, particularly comprising steps of: […]: respectively weighing six groups of SD rats; […] The drug is administrated by gavage once a day; after administrating for consecutive 6 days, administration is stopped for one day; and an administration cycle is 4 week. Respectively weighing SD rats of six groups two hours after last administration and after fasting for 12 hours; killing the SD rats, separating the prostate of the SD rats through the tweezers, and weighing the prostate;"}, "[4]": {"test_system": "SRC-1 (steroid receptor coactivator-1)", "test": "immunohistochemical measurement of SRC-1 in the prostate", "conditions": "finasteride group, 0.28 mg/kg", "description": "S3023: according to a dose of 4 mg/kg, which is calculated through equivalent conversion according to the body surface areas of humans and animals, hypodermically injecting the testosterone propionate injection to each SD rat for consecutive 30 days, and injecting normal saline of same volume to the SD rats of normal group, so as to finish modeling.\nThe high-dose group adopts an administration dose of 10 mg/kg (which is calculated through equivalent conversion according to the body surface areas of humans and animals; when the weight of the SD rat is 1 kg, 10 mg of the sterol composition in the pumpkin seed oil prepared through the example 1 is administrated), the medium-dose group adopts an administration dose of 3.3 mg/kg, and the low-dose group adopts an administration dose of 1.1 mg/kg, which respectively correspond to 20 times, 6.66 times, and 2.22 times the clinical dose. Before drug administration, suspensions of 4.5 mg/mL, 1.5 mg/mL, and 0.5 mg/mL are respectively prepared with the corn oil. […] The drug is administrated by gavage once a day; after administrating for consecutive 6 days, administration is stopped for one day; and an administration cycle is 4 week. […]"}}}
{"smiles": "CC(C)(C)NC(=O)[C@H]1CC[C@H]2[C@@H]3CC[C@H]4NC(=O)C=C[C@]4(C)[C@H]3CC[C@]12C", "note": "[Finasteride, finasteride]", "values": [{"measurement": "genetic expression quantity of 5α-reductase, RT-qPCR (FIG. 5)", "setting": "5α-reductase", "result": "obviously decreased"}, {"measurement": "Rat weight", "setting": "[1]", "result": "439.2 ± 32.7", "unit": "g"}, {"measurement": "HE stain morphology of the prostate tissue (FIG. 3)", "setting": "[2]", "result": "part of the multiple-layer epithelial cells in the prostate tissue recover to the single-layer epithelial cells"}, {"measurement": "volume of the prostate tissue compared with the model group (FIG. 2)", "setting": "[2]", "result": "obviously decreased"}, {"measurement": "decrease of prostate weight compared with the model group", "setting": "[3]; 0.28 mg/kg", "result": 19.1, "unit": "%"}, {"measurement": "Prostate weight", "setting": "[3]; 0.28 mg/kg by gavage once a day, 4 week", "result": "868.4 ± 188.3", "unit": "mg"}, {"measurement": "genetic expression of SRC-1, immunohistochemical method (FIG. 4)", "setting": "[4]", "result": "obviously decreased"}]}
